We go through 1 molecule from patent US5296480A, “Angiotensin II receptor blocking 2,3,6-substituted 5,6,7,8-tetra-hydro-pyrido[4,3]pyrimidin-4(3H)-ones” (American Cyanamid Company, priority 1993, dated 1994).

pIC50: −log10 of the molar value.

This experiment concerns the target T1, Angiotensin II Receptor (Bos taurus, UniProt P25104).
T1 construct: added in 20 ul to wells before the introduction of tissue membranes; from tissue; host or cells: microsomal membranes of an unnamed tissue
T1 sequence (P25104 1-359): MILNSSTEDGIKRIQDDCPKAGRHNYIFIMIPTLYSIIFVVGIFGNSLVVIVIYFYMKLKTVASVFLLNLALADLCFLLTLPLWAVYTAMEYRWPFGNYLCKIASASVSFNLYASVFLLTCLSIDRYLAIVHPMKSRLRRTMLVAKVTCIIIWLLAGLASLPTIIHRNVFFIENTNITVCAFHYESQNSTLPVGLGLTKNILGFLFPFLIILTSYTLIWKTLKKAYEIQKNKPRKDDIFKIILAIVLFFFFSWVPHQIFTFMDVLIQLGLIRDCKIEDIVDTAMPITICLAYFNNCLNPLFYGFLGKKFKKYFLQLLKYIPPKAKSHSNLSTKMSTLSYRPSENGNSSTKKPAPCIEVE
Put plainly: Receptor Binding Assay: displacement of [^125 I](Sar^1,Ile^8)AngII from microsomal membranes. The following applies: pH 7.4, 60 min, room temperature. The method, then:
Binding of [^125 I](Sar^1, Ile^8)AngII
The binding of [^125 I](Sar^1,Ile^8)AngII to microsomal membranes is initiated by the addition of reconstituted membranes (1:10 vols.) in freshly made 50.0 mMTris.HCl buffer, pH 7.4 containing 0.25% heat inactivated bovine serum albumin (BSA): 80 ul membrane protein (10 to 20 ug/assay) to wells already containing 100 ul of incubation buffer (as described above) and 20 ul [^125 I](Sar^1,Ile^8)AngII (Specific Activity, 2200 Ci/mmole). Non-specific binding is measured in the presence of 1.0 uM unlabeled (Sar^1,Ile^8 )AngII, added in 20 ul volume. Specific binding for [^125 I](Sar^1,Ile^8) AngII is greater than 90%. In competition studies, experimental compounds are diluted in dimethylsulfoxide (DMSO) and added in 20 ul to wells before the introduction of tissue membranes. This concentration of DMSO is found to have no negative effects on the binding of [^125 I](Sar^1,Ile^8) AngII to the membranes. Assays are performed in triplicate. […] Presoaking the filter sheet in 0.1% polyethylenemine in normal saline (PEI/Saline) greatly reduces the radioactivity retained by the filter blanks. […] The filters are removed from the filter grid and counted in a Parkard® Cobra Gamma Counter for 1 min. […] The binding data are analyzed by the non-linear interactive "LUNDON-1" program (LUNDON SOFTWARE Inc., Cleveland, Ohio U.S.A.). […]

Turning to `CCCCc1nc2c(c(=O)n1Cc1ccc(-c3ccccc3-c3nn[nH]n3)cc1)CN(C(=O)c1cccnc1)CC2` [Example 10], the pIC50 – broadly, −log10 of the IC50, conventionally taken in molar units – is 7.29.
